Results on 12 molecules are retold here after patent US9283269B2, “Method for reducing the allergenicity of animal dander” (IMMUNOPATH PROFILE, INC., priority 1998, dated 2016).

For data set [1] the following is noted: ionizing side chain of the amino acid residue; cited from earlier work.
The conditions of data set [2]: cited from earlier work; for absorption after oral administration: gastrointestinal tract.
Data set [3] concerns dermatitis and fungal infection of the toe nail. To be noted: 50% acetic acid, brief periods of application. The method, then:
Ammoniated butyric acid is […]. […] The acetic acid represents the deaminated glycine in this subject composition can be applied one to seven days per week and can be applied multiple times in one day. The duration of application can range from 2 to 60 minutes (or any other chosen interval) per application.

A further data set concerns breast cancer cells. The data set can be described thus: Breast cancer cell suspension in vitro treated with polysorbate 80. It counts as cell-based. From the text: Parkinson's disease also has an abnormal protein alpha synuculein intracytoplasmic aggregate/inclusion. Lewy bodies instead of normal random coil repeat proteins structures, cancer with deficiency in HLB modulation and adequate surfactant required by DNA progress through normal rheologic flow required in mitosis with normal cellular and nuclear division and sharing of DNA genetic traits and the resultant formation of normal daughter cells. The darkly stained nuclear mitotic figures makes its appearance as an aggregate plaque or precipitate removed from the normal flow of nuclear function and the microcirculation of nuclear DNA genetic nuclear focus and originating cell division. Response to hydrophilic surfactant in vitro is supportive of this thesis (83 percent of the breast cancer cells were killed in 24 to 48 hours with exposure to 0.25 percent polysorbate 80, Tween 80). Again countering the poor solubility of the plaque-like mechanism disease which contributes to metabolization and the normal metabolic turnover of all cell tissue and organs brings about a disease-free therapeutic response. About one-third of these cancers are associated with inflammatory immunologic response T lymphocytic-plasma cell changes and are of poor prognosis. Response to HLB modulation towards a hydrophilic HLB has provided an 83 percent in-vitro encouraging response reported in other embodiment.
Successful anticancer therapeutic activity cancer tissue cell in vitro′ breast cancer cell suspension comparative trials with treatment with 0.25 percent to 0.5 percent polysorbate 80 (Mean 80) with 83 percent reduction in 24 to 48 hours of cancer cell mitochondrial activity after HLB modulation with tween 80, and 50 percent reduction in cancer cells' abnormal morphology and abnormal mitosis on cytopathologic review.

For data set [4], the system named is pediatric liver transplant recipients. To be noted: of 64 pediatric liver transplant recipients; cited from earlier work.
The conditions of data set [5]: uric acid crystals; cited from earlier work.

Take `N=C(N)NCCC[C@H](N)C(=O)O` [Arg, arginine]: in data set [1], the ΔH was 48.4 to 54.6 kJ/mol.
For the molecule `N[C@@H](CC(=O)O)C(=O)O` [Asp, aspartic acid], the “pK of side chain” value in data set [1] is 4.2-4.5.
For the molecule `N[C@@H](CS)C(=O)O` [Cys, cysteine], the “pK of side chain” value in data set [1] is 7.5-8.5.
As for `N[C@@H](CCC(=O)O)C(=O)O` [Glu, glutamic acid], the “pK of side chain” value in data set [1] is 4.3-4.6.
For the molecule `N[C@@H](Cc1c[nH]cn1)C(=O)O` [His, histidine], in data set [1], the “pK of side chain” value is given as 6.2-6.5 and the ΔH is 29 to 31.5 kJ/mol.
`COc1ccc2c(c1)c(CC(=O)O)c(C)n2C(=O)c1ccc(Cl)cc1` [Indomethacin]: in data set [2] (after long-term administration), the “steady-state concentrations in plasma” value is listed as “approximately 0.5 micrograms/ml”. Moreover, the “time to peak concentration in plasma” value in data set [2] (fasting subject, oral) was not above 2 h. Moreover, the “absorption after oral administration” value in data set [2] is “rapidly and almost completely absorbed”. In data set [2] (in vivo), the “bound to plasma proteins” value is 90%. In data set [2] (inactive metabolites), the “converted by O-demethylation” value is given as “about 50%” and the “converted by conjugation with glucuronic acid” value is listed as “about 10%”. The “concentrations in plasma required for an anti-inflammatory effect” value in data set [2] (not definitely determined) was “less than 1 microgram per ml”.
As for `NCCCC[C@H](N)C(=O)O` [Lys, lysine], in data set [1], the “pK of side chain” value was 9.8-10.4 and the ΔH was 42 to 48.4 kJ/mol.
`O=C(O)c1cc(/N=N/c2ccc(S(=O)(=O)Nc3ccccn3)cc2)ccc1O` [Sulfasalazine, salicylazosulfapyridine]: the “absorption after oral administration” value in data set [2] is reported as “poorly absorbed”.
Consider `CC(=O)O` [acetic acid], for which the “effect on dermatitis and fungal toe nail infection” value in data set [3] is given as “dramatically reverse long-term dermatitis and, fungal infection of the toe nail”.
Take `CCCCCCCC/C=C\CCCCCCCC(=O)OCCOCC(OCCO)C1OCC(OCCO)C1OCCO` (stereo not drawn) [polysorbate 80]: the “breast cancer cells killed” value with breast cancer cells (0.25 percent polysorbate 80, 24 to 48 hours) was found to be 83%. The “reduction in cancer cells' abnormal morphology and abnormal mitosis on cytopathologic review” value in the data set with breast cancer cells (0.25 percent to 0.5 percent polysorbate 80) is 50%. Further, the “reduction of cancer cell mitochondrial activity” value in the data set with breast cancer cells (0.25 percent to 0.5 percent polysorbate 80, 24 to 48 hours) was found to be 83%.
As to `C=CC[C@@H]1/C=C(\C)C[C@H](C)C[C@H](OC)[C@H]2O[C@@](O)(C(=O)C(=O)N3CCCC[C@H]3C(=O)O[C@H](/C(C)=C/[C@@H]3CC[C@@H](O)[C@H](OC)C3)[C@H](C)[C@@H](O)CC1=O)[C@H](C)C[C@@H]2OC` [tacrolimus], in data set [4], the “patients who experienced food allergies” value is reported as 17% and the “patients who experienced food allergies (number)” value is given as 11.
For `O=c1[nH]c(=O)c2[nH]c(=O)[nH]c2[nH]1` [uric acid], in data set [5], the solubility in glycerine entry was “very soluble” and the solubility in water result is recorded as “marked insolubility”.
